What was measured:
[1] = Hemolytic activity, spectrophotometric; format: cell-based, human; details: human, human red blood cells (huRBC), 5% hematocrit, 200 μg/mL, 37 °C
CCRF-CEM = experiment: cells; details: Homo sapiens, 48 h; for CC50: read-out: LC50
HL-60(TB) = experiment: cells; details: Homo sapiens, HL-60, 48 h; for CC50: read-out: LC50
K-562 = experiment: cells; details: Homo sapiens, K562, 48 h; for GI50: K-562, 48 h; for CC50: read-out: LC50
EKVX = experiment: cells; details: Homo sapiens, 48 h; for CC50: read-out: LC50
HOP-62 = experiment: cells; details: Homo sapiens, HOP-62, 48 h; for CC50: read-out: LC50
NCI-H322M = experiment: cells; details: Homo sapiens, 48 h; for CC50: read-out: LC50
NCI-H460 = experiment: cells; details: Homo sapiens, NCI-H460, 48 h; for CC50: read-out: LC50
COLO 205 = experiment: cells; details: Homo sapiens, COLO 205, 48 h; for CC50: read-out: LC50
HCC-2998 = experiment: cells; details: Homo sapiens, HCC 2998, 48 h; for CC50: read-out: LC50
HCT-15 = experiment: cells; details: Homo sapiens, HCT-15, 48 h; for CC50: read-out: LC50
HT29 = experiment: cells; details: Homo sapiens, HT-29, 48 h; for CC50: read-out: LC50
KM12 = experiment: cells; details: Homo sapiens, KM12, 48 h; for CC50: read-out: LC50
SF-268 = experiment: cells; details: Homo sapiens, SF-268, 48 h; for CC50: read-out: LC50
SF-295 = experiment: cells; details: Homo sapiens, SF-295, 48 h; for CC50: read-out: LC50
SF-539 = experiment: cells; details: Homo sapiens, SF-539, 48 h; for CC50: read-out: LC50, SF-539, 48 h
SNB-75 = experiment: cells; details: Homo sapiens, SNB-75, 48 h; for CC50: read-out: LC50
MALME-3M = experiment: cells; details: Homo sapiens, 48 h
M14 = experiment: cells; details: Homo sapiens, M14, 48 h; for CC50: read-out: LC50
SK-MEL-28 = experiment: cells; details: Homo sapiens, SK-MEL-28, 48 h; for CC50: read-out: LC50
SK-MEL-5 = experiment: cells; details: Homo sapiens, SK-MEL-5, 48 h; for CC50: read-out: LC50
UACC-257 = experiment: cells; details: Homo sapiens, UACC-257, 48 h; for CC50: read-out: LC50
UACC-62 = experiment: cells; details: Homo sapiens, UACC-62, 48 h
OVCAR-3 = experiment: cells; details: Homo sapiens, OVCAR-3, 48 h; for CC50: read-out: LC50
OVCAR-4 = experiment: cells; details: Homo sapiens, OVCAR-4, 48 h; for CC50: read-out: LC50
OVCAR-5 = experiment: cells; details: Homo sapiens, OVCAR-5, 48 h; for CC50: read-out: LC50
OVCAR-8 = experiment: cells; details: Homo sapiens, OVCAR-8, 48 h; for CC50: read-out: LC50
SK-OV-3 = experiment: cells; details: Homo sapiens, SK-OV-3, 48 h; for CC50: read-out: LC50
786-0 = experiment: cells; details: Homo sapiens, 786-0, 48 h; for CC50: read-out: LC50
A498 = experiment: cells; details: Homo sapiens, A498, 48 h; for CC50: read-out: LC50
CAKI-1 = experiment: cells; details: Homo sapiens, CAKI-1, 48 h; for CC50: read-out: LC50
RXF 393 = experiment: cells; details: Homo sapiens, RXF 393, 48 h; for CC50: read-out: LC50
SN12C = experiment: cells; details: Homo sapiens, 48 h; for CC50: read-out: LC50
TK-10 = experiment: cells; details: Homo sapiens, TK-10, 48 h; for CC50: read-out: LC50
UO-31 = experiment: cells; details: Homo sapiens, UO-31, 48 h; for CC50: read-out: LC50
MCF7 = experiment: cells; details: Homo sapiens, MCF7, 48 h
HS 578T = experiment: cells; details: Homo sapiens, 48 h; for CC50: read-out: LC50
MDA-MB-468 = experiment: cells; details: Homo sapiens, MDA-MB-468, 48 h; for CC50: read-out: LC50

SMILES: CN(C)c1nc(NCCNS(=O)(=O)c2ccc(C(=O)/C=C/c3ccccc3)cc2)nc(N2CCOCC2)n1 [23a]
- hemolysis at 24 h, 200 µg/mL [1]: 0.7%
- GI50 (CCRF-CEM): 4.41 µM
- CC50 (CCRF-CEM): > 100 µM
- GI50 (HL-60(TB)): 6.18 µM
- CC50 (HL-60(TB)): > 100 µM
- GI50 (K-562): 2.19 µM
- CC50 (K-562): > 100 µM
- GI50 (EKVX): 14.7 µM
- CC50 (EKVX): 63.8 µM
- GI50 (HOP-62): 16.4 µM
- CC50 (HOP-62): 62.7 µM
- GI50 (NCI-H322M): 14.8 µM
- CC50 (NCI-H322M): 56.5 µM
- GI50 (NCI-H460): 18.2 µM
- CC50 (NCI-H460): 80.7 µM
- GI50 (COLO 205): 20.2 µM
- CC50 (COLO 205): 80.7 µM
- GI50 (HCC-2998): 16.7 µM
- CC50 (HCC-2998): 57.7 µM
- GI50 (HCT-15): 5.21 µM
- CC50 (HCT-15): 61.7 µM
- GI50 (HT29): 3.8 µM
- CC50 (HT29): 43.9 µM
- GI50 (KM12): 2 µM
- CC50 (KM12): 8.93 µM
- GI50 (SF-268): 13.7 µM
- CC50 (SF-268): 70.1 µM
- GI50 (SF-295): 15.6 µM
- CC50 (SF-295): 59.5 µM
- GI50 (SF-539): 11.1 µM
- CC50 (SF-539): 53.2 µM
- GI50 (SNB-75): 5.49 µM
- CC50 (SNB-75): 44.6 µM
- GI50 (MALME-3M): 15.2 µM
- CC50 (MALME-3M; read-out: LC50): 56.5 µM
- GI50 (M14): 14.6 µM
- CC50 (M14): 68.5 µM
- GI50 (SK-MEL-28): 17.2 µM
- CC50 (SK-MEL-28): 63.9 µM
- GI50 (SK-MEL-5): 15.9 µM
- CC50 (SK-MEL-5): 54.3 µM
- GI50 (UACC-257): 17.9 µM
- CC50 (UACC-257): 58.3 µM
- GI50 (UACC-62): 12 µM
- CC50 (UACC-62; read-out: LC50): 52.3 µM
- GI50 (OVCAR-3): 15.3 µM
- CC50 (OVCAR-3): 53.4 µM
- GI50 (OVCAR-4): 14.3 µM
- CC50 (OVCAR-4): 54 µM
- GI50 (OVCAR-5): 12.1 µM
- CC50 (OVCAR-5): 55.9 µM
- GI50 (OVCAR-8): 16.4 µM
- CC50 (OVCAR-8): 61.7 µM
- GI50 (SK-OV-3): 15.6 µM
- CC50 (SK-OV-3): 56.8 µM
- GI50 (786-0): 14.8 µM
- CC50 (786-0): 57.1 µM
- GI50 (A498): 14.6 µM
- CC50 (A498): 52.9 µM
- GI50 (CAKI-1): 12.2 µM
- CC50 (CAKI-1): 49.9 µM
- GI50 (RXF 393): 7.87 µM
- CC50 (RXF 393): 55.8 µM
- GI50 (SN12C): 14.6 µM
- CC50 (SN12C): 56.1 µM
- GI50 (TK-10): 16.4 µM
- CC50 (TK-10): 55.5 µM
- GI50 (UO-31): 11.2 µM
- CC50 (UO-31): 55.7 µM
- GI50 (MCF7): 3.49 µM
- CC50 (MCF7; read-out: LC50): 62 µM
- GI50 (HS 578T): 17.1 µM
- CC50 (HS 578T): > 100 µM
- GI50 (MDA-MB-468): 4.17 µM
- CC50 (MDA-MB-468): 49.9 µM

SMILES: Nc1nc(N)c2c(n1)NC(c1ccc(C(F)(F)F)cc1)CC(c1ccc(Nc3nc(NCCO)nc(Nc4ccc(Cl)cc4)n3)cc1)=N2 (stereo not drawn) [33g]
- hemolysis at 24 h, 200 µg/mL [1]: 22%
- GI50 (CCRF-CEM): 1.23 µM
- CC50 (CCRF-CEM): > 100 µM
- GI50 (HL-60(TB)): 1.28 µM
- CC50 (HL-60(TB)): > 100 µM
- GI50 (K-562): 0.642 µM
- CC50 (K-562): > 100 µM
- GI50 (EKVX): 1.52 µM
- CC50 (EKVX): 5.75 µM
- GI50 (HOP-62): 1.63 µM
- CC50 (HOP-62): 6.14 µM
- GI50 (NCI-H322M): 1.66 µM
- CC50 (NCI-H322M): 5.63 µM
- GI50 (NCI-H460): 1.96 µM
- CC50 (NCI-H460): 8.23 µM
- GI50 (COLO 205): 1.33 µM
- CC50 (COLO 205): 5.25 µM
- GI50 (HCC-2998): 1.31 µM
- CC50 (HCC-2998): 5.25 µM
- GI50 (HCT-15): 1.15 µM
- CC50 (HCT-15): 5.83 µM
- GI50 (HT29): 1.36 µM
- CC50 (HT29): 6.54 µM
- GI50 (KM12): 1.37 µM
- CC50 (KM12): 6.05 µM
- GI50 (SF-268): 1.66 µM
- CC50 (SF-268): 7.27 µM
- GI50 (SF-295): 1.79 µM
- CC50 (SF-295): 6.14 µM
- GI50 (SF-539): 1.56 µM
- CC50 (SF-539): 5.68 µM
- GI50 (SNB-75): 1.7 µM
- CC50 (SNB-75): 9.06 µM
- GI50 (MALME-3M): 1.74 µM
- GI50 (M14): 1.64 µM
- CC50 (M14): 5.72 µM
- GI50 (SK-MEL-28): 1.53 µM
- CC50 (SK-MEL-28): 5.37 µM
- GI50 (SK-MEL-5): 1.55 µM
- CC50 (SK-MEL-5): 5.37 µM
- GI50 (UACC-257): 1.75 µM
- CC50 (UACC-257): 5.82 µM
- GI50 (UACC-62): 1.68 µM
- GI50 (OVCAR-3): 1.32 µM
- CC50 (OVCAR-3): 6.57 µM
- GI50 (OVCAR-4): 2.23 µM
- CC50 (OVCAR-4): > 100 µM
- GI50 (OVCAR-5): 1.6 µM
- CC50 (OVCAR-5): 5.64 µM
- GI50 (OVCAR-8): 1.5 µM
- CC50 (OVCAR-8): 5.75 µM
- GI50 (SK-OV-3): 1.83 µM
- CC50 (SK-OV-3): 6.52 µM
- GI50 (786-0): 1.39 µM
- CC50 (786-0): 6.09 µM
- GI50 (A498): 1.56 µM
- CC50 (A498): 5.4 µM
- GI50 (CAKI-1): 1.45 µM
- CC50 (CAKI-1): 5.61 µM
- GI50 (RXF 393): 1.14 µM
- CC50 (RXF 393): 5.48 µM
- GI50 (SN12C): 1.76 µM
- CC50 (SN12C): 6.35 µM
- GI50 (TK-10): 1.78 µM
- CC50 (TK-10): 5.63 µM
- GI50 (UO-31): 1.43 µM
- CC50 (UO-31): 5.3 µM
- GI50 (MCF7): 1.26 µM
- GI50 (HS 578T): 2.55 µM
- CC50 (HS 578T): > 100 µM
- GI50 (MDA-MB-468): 1.58 µM
- CC50 (MDA-MB-468): 6.53 µM
